From patent US9981916B2 (Genentech, Inc., priority 2013, dated 2018) come the findings set out here.

The target in this test is T1, RORc ligand binding domain (Homo sapiens, UniProt P51449).
T1 construct: host or cells: E. coli
T1 sequence (P51449 269-508 limits assumed): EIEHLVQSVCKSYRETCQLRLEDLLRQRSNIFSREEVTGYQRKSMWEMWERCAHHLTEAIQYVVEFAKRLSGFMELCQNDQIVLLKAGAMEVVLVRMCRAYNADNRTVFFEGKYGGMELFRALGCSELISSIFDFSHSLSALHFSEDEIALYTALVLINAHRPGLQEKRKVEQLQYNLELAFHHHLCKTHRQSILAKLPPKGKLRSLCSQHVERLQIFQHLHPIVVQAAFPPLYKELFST
Put plainly: In vitro RORc ligand binding assay (25-[3H]hydroxycholesterol displacement, filter binding). The conditions noted are these: 6 nM 25-[3H]hydroxycholesterol, 0.6 ug/mL RORc receptor, 3 h at 25° C. The method, boiled down: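 Filter-binding displacement of 6 nM 25-[3H]hydroxycholesterol from RORc receptor (0.6 ug/mL) in 50 mM HEPES pH 7.4, 150 mM NaCl, 5 mM MgCl2, 1 mM DTT, 0.01% BSA, 5% DMSO; 3 h at 25° C. NSB defined with 1 uM 25-hydroxycholesterol; scintillation counting gave Kiapp, IC50 or % inhibition (screening at 1 and 10 uM).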
The compound `CC1(C)[C@@H]2CC[C@@]1(C(=O)Nc1ccc(C#N)cn1)c1nnc(-c3c(F)cccc3F)cc12` [Example 205, (5S,8S)-N-(5-cyanopyridin-2-yl)-3-(2,6-difluorophenyl)-9,9-dimethyl-5,6,7,8-tetrahydro-5,8-methanocinnoline-8-carboxamide] registered an IC50 of 2820 nM. This lies in the single-digit micromolar range.

In turn, `CC1(C)[C@@H]2CC[C@@]1(C(=O)NC1CCCC1)c1nnc(-c3c(F)cccc3F)cc12` [Example 206, (5S,8S)-N-cyclopentyl-3-(2,6-difluorophenyl)-9,9-dimethyl-5,6,7,8-tetrahydro-5,8-methanocinnoline-8-carboxamide] showed an IC50 of 1230 nM.

The compound `CC1(C)[C@@H]2CC[C@@]1(C(=O)N1CCC(F)(F)C1)c1nnc(-c3c(F)cccc3F)cc12` [Example 207, ((5S,8S)-3-(2,6-difluorophenyl)-9,9-dimethyl-5,6,7,8-tetrahydro-5,8-methanocinnolin-8-yl)(3,3-difluoropyrrolidin-1-yl)methanone] displayed an IC50 of 191 nM.

`CC1(C)[C@@H]2CC[C@@]1(C(=O)N1CCC(C(F)(F)F)C1)c1nnc(-c3c(F)cccc3F)cc12` (stereo partly drawn) [Example 208, ((5S,8S)-3-(2,6-difluorophenyl)-9,9-dimethyl-5,6,7,8-tetrahydro-5,8-methanocinnolin-8-yl)(3-(trifluoromethyl)pyrrolidin-1-yl)methanone] had an IC50 of 142 nM.

In the case of `CC(C)CNC(=O)[C@]12CC[C@H](c3cc(-c4c(F)cccc4F)nnc31)C2(C)C` [Example 209, (5S,8S)-3-(2,6-difluorophenyl)-N-isobutyl-9,9-dimethyl-5,6,7,8-tetrahydro-5,8-methanocinnoline-8-carboxamide], the 50% inhibitory concentration (IC50) came to 1550 nM.

Take `CC1(C)[C@@H]2CC[C@@]1(C(=O)NCC(F)F)c1nnc(-c3c(F)cccc3F)cc12` [Example 210, (5S,8S)-N-(2,2-difluoroethyl)-3-(2,6-difluorophenyl)-9,9-dimethyl-5,6,7,8-tetrahydro-5,8-methanocinnoline-8-carboxamide]: the half-maximal inhibitory concentration (IC50) was 528 nM.

As for `CN(C)C(=O)C1CCN(C(=O)[C@]23CC[C@H](c4cc(-c5c(F)cccc5F)nnc42)C3(C)C)C1` (stereo partly drawn) [Example 211, 1-((5S,8S)-3-(2,6-difluorophenyl)-9,9-dimethyl-5,6,7,8-tetrahydro-5,8-methanocinnoline-8-carbonyl)-N,N-dimethylpyrrolidine-3-carboxamide], the IC50 is 726 nM. The IC50 values of the last two compounds are within 1.5-fold of each other.

In turn, `CNC(=O)[C@@H]1[C@@H]2CN(C(=O)[C@]34CC[C@H](c5cc(-c6c(F)cccc6F)nnc53)C4(C)C)C[C@@H]21` [Example 212, (1R,5S,6R)-3-((5S,8S)-3-(2,6-difluorophenyl)-9,9-dimethyl-5,6,7,8-tetrahydro-5,8-methanocinnoline-8-carbonyl)-N-methyl-3-azabicyclo[3.1.0]hexane-6-carboxamide] had a half-inhibitory concentration (IC50) of 2140 nM.

As to `COC(=O)C1CCN(C(=O)[C@]23CC[C@H](c4cc(-c5c(F)cccc5F)nnc42)C3(C)C)C1` (stereo partly drawn) [Example 213, methyl 1-((5S,8S)-3-(2,6-difluorophenyl)-9,9-dimethyl-5,6,7,8-tetrahydro-5,8-methanocinnoline-8-carbonyl)pyrrolidine-3-carboxylate], the half-inhibitory concentration (IC50) amounted to 32 nM.

Turning to `CC1(C)[C@@H]2CC[C@@]1(C(=O)N1CC3CC1C3)c1nnc(-c3c(F)cccc3F)cc12` [Example 214, 2-azabicyclo[2.1.1]hexan-2-yl((5S,8S)-3-(2,6-difluorophenyl)-9,9-dimethyl-5,6,7,8-tetrahydro-5,8-methanocinnolin-8-yl)methanone], the 50% inhibitory concentration (IC50) is 220 nM.

On to `CC1(C)[C@@H]2CC[C@@]1(C(=O)N1CC[C@H](CO)C1)c1nnc(-c3c(F)cccc3F)cc12` [Example 216, ((5S,8S)-3-(2,6-difluorophenyl)-9,9-dimethyl-5,6,7,8-tetrahydro-5,8-methanocinnolin-8-yl)((S)-3-(hydroxymethyl)pyrrolidin-1-yl)methanone], for which the IC50 worked out at 830 nM.

In turn, `CC1(C)[C@@H]2CC[C@@]1(C(=O)N1CC3COCC3C1)c1nnc(-c3c(F)cccc3F)cc12` (stereo partly drawn) [Example 217, ((5S,8S)-3-(2,6-difluorophenyl)-9,9-dimethyl-5,6,7,8-tetrahydro-5,8-methanocinnolin-8-yl)(tetrahydro-1H-furo[3,4-c]pyrrol-5(3H)-yl)methanone] gave a 50% inhibitory concentration (IC50) of 144 nM.

`CC1(C)[C@@H]2CC[C@@]1(C(=O)N1CCC3(COC3)C1)c1nnc(-c3c(F)cccc3F)cc12` [Example 218, ((5S,8S)-3-(2,6-difluorophenyl)-9,9-dimethyl-5,6,7,8-tetrahydro-5,8-methanocinnolin-8-yl)(2-oxa-6-azaspiro[3.4]octan-6-yl)methanone] had a half-maximal inhibitory concentration (IC50) of 2440 nM. This IC50 lies about 17-fold higher than the previous one.

Take `CC1(O)CCN(C(=O)[C@]23CC[C@H](c4cc(-c5c(F)cccc5F)nnc42)C3(C)C)C1` (stereo partly drawn) [Example 219, ((5S,8S)-3-(2,6-difluorophenyl)-9,9-dimethyl-5,6,7,8-tetrahydro-5,8-methanocinnolin-8-yl)(3-hydroxy-3-methylpyrrolidin-1-yl)methanone]: the half-maximal inhibitory concentration (IC50) amounted to 1100 nM. This IC50 lies about 2.2-fold lower than the previous one.

As for `C[C@H]1CN(C(=O)[C@]23CC[C@H](c4cc(-c5c(F)cccc5F)nnc42)C3(C)C)C[C@@H]1O` [Example 220, ((5S,8S)-3-(2,6-difluorophenyl)-9,9-dimethyl-5,6,7,8-tetrahydro-5,8-methanocinnolin-8-yl)((3R,4S)-3-hydroxy-4-methylpyrrolidin-1-yl)methanone], the IC50 turned out to be 2940 nM.

`CC1(C)[C@@H]2CC[C@@]1(C(=O)N1CC3(CCCO3)C1)c1nnc(-c3c(F)cccc3F)cc12` [Example 221, ((5S,8S)-3-(2,6-difluorophenyl)-9,9-dimethyl-5,6,7,8-tetrahydro-5,8-methanocinnolin-8-yl)(5-oxa-2-azaspiro[3.4]octan-2-yl)methanone] had a concentration for half-maximal inhibition (IC50) of 612 nM.

`CNC(=O)[C@H]1[C@@H]2CN(C(=O)[C@]34CC[C@H](c5cc(-c6c(F)cccc6F)nnc53)C4(C)C)C[C@@H]21` [Example 222, (1R,5S,6S)-3-((5S,8S)-3-(2,6-difluorophenyl)-9,9-dimethyl-5,6,7,8-tetrahydro-5,8-methanocinnoline-8-carbonyl)-N-methyl-3-azabicyclo[3.1.0]hexane-6-carboxamide] registered an IC50 of 1430 nM.

For the compound `CC1(C)[C@@H]2CC[C@@]1(C(=O)N1CCC3CC31)c1nnc(-c3c(F)cccc3F)cc12` (stereo partly drawn) [Example 223, 2-azabicyclo[3.1.0]hexan-2-yl((5S,8S)-3-(2,6-difluorophenyl)-9,9-dimethyl-5,6,7,8-tetrahydro-5,8-methanocinnolin-8-yl)methanone], the IC50 is 196 nM.

Take `CC1(C)[C@@H]2CC[C@@]1(C(=O)N1CCCC1C(F)(F)F)c1nnc(-c3c(F)cccc3F)cc12` (stereo partly drawn) [Example 224, ((5S,8S)-3-(2,6-difluorophenyl)-9,9-dimethyl-5,6,7,8-tetrahydro-5,8-methanocinnolin-8-yl)(2-(trifluoromethyl)pyrrolidin-1-yl)methanone]: the IC50 was found to be 327 nM.

`CC(=O)N[C@H]1CCN(C(=O)[C@]23CC[C@H](c4cc(-c5c(F)cccc5F)nnc42)C3(C)C)C1` [Example 225, N-((S)-1-((5S,8S)-3-(2,6-difluorophenyl)-9,9-dimethyl-5,6,7,8-tetrahydro-5,8-methanocinnoline-8-carbonyl)pyrrolidin-3-yl)acetamide] registered a 50% inhibitory concentration (IC50) of 2720 nM.

As for `Cn1nc([C@@]23CC[C@@H](c4cc(-c5c(F)cccc5F)nnc42)C3(C)C)oc1=O` [Example 226, 5-((5R,8R)-3-(2,6-difluorophenyl)-9,9-dimethyl-5,6,7,8-tetrahydro-5,8-methanocinnolin-8-yl)-3-methyl-1,3,4-oxadiazol-2(3H)-one], the half-inhibitory concentration (IC50) came to 124 nM.

Compound `Cc1ncoc1[C@]12CC[C@H](c3cc(-c4c(F)cccc4F)nnc31)C2(C)C` [Example 227, 5-((5S,8S)-3-(2,6-difluorophenyl)-9,9-dimethyl-5,6,7,8-tetrahydro-5,8-methanocinnolin-8-yl)-4-methyloxazole] yielded an IC50 of 139 nM. The IC50 values of the last two compounds are within 1.5-fold of each other.

On to `Cc1ocnc1[C@]12CC[C@H](c3cc(-c4c(F)cccc4F)nnc31)C2(C)C` [Example 228, 4-((5S,8R)-3-(2,6-difluorophenyl)-9,9-dimethyl-5,6,7,8-tetrahydro-5,8-methanocinnolin-8-yl)-5-methyloxazole], for which the concentration for half-maximal inhibition (IC50) came out at 137 nM.

Regarding `Cc1nn(C)/c(=N\[C@@]23CC[C@@H](c4cc(-c5ccccc5F)nnc42)C3(C)C)o1` [Example 229, (5R,8R,E)-N-(3,5-dimethyl-1,3,4-oxadiazol-2(3H)-ylidene)-3-(2-fluorophenyl)-9,9-dimethyl-5,6,7,8-tetrahydro-5,8-methanocinnolin-8-amine], the 50% inhibitory concentration (IC50) was determined as 1530 nM.

As to `Cc1nnc(N(C)[C@@]23CC[C@@H](c4cc(-c5ccccc5F)nnc42)C3(C)C)o1` [Example 230, N-((5R,8R)-3-(2-fluorophenyl)-9,9-dimethyl-5,6,7,8-tetrahydro-5,8-methanocinnolin-8-yl)-N,5-dimethyl-1,3,4-oxadiazol-2-amine], the concentration for half-maximal inhibition (IC50) was found to be 1820 nM.

For the compound `CC1(C)[C@@H]2CC[C@@]1(C(=O)N1C[C@@H]3C[C@H]1CO3)c1nnc(-c3c(F)cccc3F)cc12` [Example 231, (1S,4S)-2-oxa-5-azabicyclo[2.2.1]heptan-5-yl((5S,8S)-3-(2,6-difluorophenyl)-9,9-dimethyl-5,6,7,8-tetrahydro-5,8-methanocinnolin-8-yl)methanone], the IC50 is 241 nM.
